According to PubChem BioAssay (NCI):
“And” between values parts separate entries of the source, which are not always exact repeats. Equal entries are not always repeated.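 96-well plates; 48 h exposure; 5 concentrations. Endpoints by linear interpolation between flanking doses. Not reached: highest tested concentration assigned. At the GI50, growth is halved. At the TGI there is no net growth.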

Experiments:
Test in all cases: NCI tumour cell line growth inhibition, 48 h
[1] = tested on: SK-MEL-5 melanoma
[2] = tested on: MDA-MB-231 breast
[3] = tested on: OVCAR-3 ovarian
[4] = tested on: SK-MEL-28 melanoma
[5] = tested on: KM12 colon
[6] = tested on: ACHN renal
[7] = tested on: NCI-H460 lung
[8] = tested on: MDA-MB-435
[9] = tested on: SNB-75 CNS
[10] = tested on: MALME-3M melanoma

Question: How did the GI50 [1] turn out when `C=CC(=O)Nc1cc(Nc2nccc(-c3cn(C)c4ccccc34)n2)c(OC)cc1N(C)CCN(C)C` was run?
Answer: 1.72 µM

Question: What about the TGI [1] of the same compound?
Answer: 3.13 µM

Question: What about the GI50 [2] of the same compound?
Answer: 1.59 µM and 1.7 µM

Question: What about the TGI [2] of the same compound?
Answer: 3.45 µM and 3.6 µM

Question: And the GI50 [3]?
Answer: 1.4 µM and 1.38 µM

Question: And the TGI [3]?
Answer: 2.93 µM and 3.04 µM

Question: And the GI50 [4]?
Answer: 1.63 µM and 1.62 µM

Question: What about the TGI [4] of the same compound?
Answer: 3.07 µM and 3.12 µM

Question: And the GI50 [5]?
Answer: 2.31 µM and 2.12 µM

Question: And the TGI [5]?
Answer: 5.49 µM and 5.41 µM

Question: And the GI50 [6]?
Answer: 0.272 µM and 0.479 µM

Question: And the TGI [6]?
Answer: 1.95 µM and 1.88 µM

Question: And the GI50 [7]?
Answer: 2.18 µM and 2.14 µM

Question: What about the TGI [7] of the same compound?
Answer: 5.15 µM and 6.09 µM

Question: What about the GI50 [8] of the same compound?
Answer: 1.62 µM and 1.64 µM

Question: What about the TGI [8] of the same compound?
Answer: 3.03 µM and 3.14 µM

Question: What about the GI50 [9] of the same compound?
Answer: 3.52 µM and 2.57 µM

Question: What about the TGI [9] of the same compound?
Answer: 16.4 µM and > 10 µM

Question: And the GI50 [10]?
Answer: 2.16 µM and 1.71 µM

Question: And the TGI [10]?
Answer: 3.97 µM and 3.28 µM

Question: With `COc1ccc(Cn2c(Br)c3c(c2Br)-c2nc(N)sc2CC3)cc1` as the compound, how does the GI50 [1] read?
Answer: 4.83 µM

Question: And the TGI [1]?
Answer: 18.7 µM

Question: What about the GI50 [2] of the same compound?
Answer: 5.97 µM

Question: And the TGI [2]?
Answer: 26.8 µM

Question: What about the GI50 [3] of the same compound?
Answer: 4.1 µM

Question: And the TGI [3]?
Answer: 15.5 µM

Question: And the GI50 [4]?
Answer: 4.98 µM

Question: And the TGI [4]?
Answer: 18.1 µM

Question: What about the GI50 [5] of the same compound?
Answer: 3.47 µM

Question: What about the TGI [5] of the same compound?
Answer: 20.6 µM

Question: And the GI50 [6]?
Answer: 3.22 µM

Question: What about the TGI [6] of the same compound?
Answer: 12 µM

Question: And the GI50 [7]?
Answer: 3.88 µM

Question: And the TGI [7]?
Answer: 17.3 µM

Question: And the GI50 [8]?
Answer: 0.407 µM

Question: And the TGI [8]?
Answer: 10.4 µM

Question: And the GI50 [9]?
Answer: 1.92 µM

Question: What about the TGI [9] of the same compound?
Answer: 8.64 µM

Question: And the GI50 [10]?
Answer: 5.22 µM

Question: What about the TGI [10] of the same compound?
Answer: 19.9 µM

Question: For `COCCn1cc(-c2nc(-c3cc4cccnc4[nH]3)cs2)c2cc(OC)ccc21`, which GI50 [1] is on record?
Answer: 4.47 µM

Question: And the TGI [1]?
Answer: 21.4 µM

Question: What about the GI50 [2] of the same compound?
Answer: 1.76 µM

Question: And the TGI [2]?
Answer: > 79.9 µM

Question: What about the GI50 [3] of the same compound?
Answer: 4.28 µM

Question: What about the TGI [3] of the same compound?
Answer: 21.7 µM

Question: What about the GI50 [4] of the same compound?
Answer: 5.21 µM

Question: And the TGI [4]?
Answer: > 100 µM

Question: And the GI50 [5]?
Answer: 0.203 µM

Question: And the TGI [5]?
Answer: 9.38 µM

Question: What about the GI50 [6] of the same compound?
Answer: 2.61 µM

Question: And the TGI [6]?
Answer: > 100 µM

Question: And the GI50 [7]?
Answer: 1.1 µM

Question: And the TGI [7]?
Answer: 12.9 µM

Question: What about the GI50 [8] of the same compound?
Answer: 5.27 µM

Question: What about the TGI [8] of the same compound?
Answer: > 100 µM

Question: And the GI50 [9]?
Answer: 1.22 µM

Question: What about the TGI [9] of the same compound?
Answer: 5.83 µM

Question: And the GI50 [10]?
Answer: 7.99 µM

Question: What about the TGI [10] of the same compound?
Answer: > 80.6 µM

Question: How did the GI50 [1] turn out when `NC(=S)N/N=C\c1nccc2c(C(F)(F)F)cccc12` was run?
Answer: 0.183 µM

Question: What about the TGI [1] of the same compound?
Answer: 0.921 µM

Question: What about the GI50 [2] of the same compound?
Answer: 0.281 µM

Question: What about the TGI [2] of the same compound?
Answer: 17.6 µM

Question: What about the GI50 [3] of the same compound?
Answer: 0.294 µM

Question: And the TGI [3]?
Answer: 10.8 µM

Question: And the GI50 [4]?
Answer: 0.57 µM

Question: What about the TGI [4] of the same compound?
Answer: 12.7 µM

Question: What about the GI50 [5] of the same compound?
Answer: 0.356 µM

Question: What about the TGI [5] of the same compound?
Answer: 16.9 µM

Question: What about the GI50 [6] of the same compound?
Answer: 0.226 µM

Question: And the TGI [6]?
Answer: 5.58 µM

Question: What about the GI50 [7] of the same compound?
Answer: 0.26 µM

Question: And the TGI [7]?
Answer: 8.59 µM

Question: What about the GI50 [8] of the same compound?
Answer: 0.481 µM

Question: And the TGI [8]?
Answer: 31.5 µM

Question: What about the GI50 [9] of the same compound?
Answer: 0.284 µM

Question: And the TGI [9]?
Answer: 16.7 µM

Question: What about the GI50 [10] of the same compound?
Answer: 0.435 µM

Question: What about the TGI [10] of the same compound?
Answer: > 34.5 µM

Question: How did the GI50 [1] turn out when `OC(c1cc(C(F)(F)F)nc2c(C(F)(F)F)cccc12)C1CCCCN1` (stereo not given) was run?
Answer: 1.68 µM

Question: And the TGI [1]?
Answer: 3.07 µM

Question: And the GI50 [2]?
Answer: 1.78 µM

Question: What about the TGI [2] of the same compound?
Answer: 3.45 µM

Question: What about the GI50 [3] of the same compound?
Answer: 2.19 µM

Question: What about the TGI [3] of the same compound?
Answer: 4.37 µM

Question: And the GI50 [4]?
Answer: 1.84 µM

Question: What about the TGI [4] of the same compound?
Answer: 3.29 µM

Question: And the GI50 [5]?
Answer: 1.87 µM

Question: What about the TGI [5] of the same compound?
Answer: 3.59 µM

Question: What about the GI50 [6] of the same compound?
Answer: 2.69 µM

Question: What about the TGI [6] of the same compound?
Answer: 7.05 µM

Question: What about the GI50 [7] of the same compound?
Answer: 2.07 µM

Question: What about the TGI [7] of the same compound?
Answer: 4.14 µM

Question: And the GI50 [8]?
Answer: 1.8 µM

Question: And the TGI [8]?
Answer: 3.66 µM

Question: And the GI50 [9]?
Answer: 2.34 µM

Question: And the TGI [9]?
Answer: 11.7 µM

Question: What about the GI50 [10] of the same compound?
Answer: 2.6 µM

Question: What about the TGI [10] of the same compound?
Answer: 7.36 µM
